In PubChem BioAssay (NCI):
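Five concentrations, 48 hours, 96-well plates. At the TGI there is no net growth.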

Legend:
Assay in all cases: DTP human tumour cell line panel, 48 h
MDA-MB-231 breast = test system: MDA-MB-231 breast
UACC-62 melanoma = test system: UACC-62 melanoma
NCI-H460 lung = test system: NCI-H460 lung
A498 renal = test system: A498 renal
ACHN renal = test system: ACHN renal
DU-145 prostate = test system: DU-145 prostate
U251 CNS = test system: U251 CNS
NCI-H226 lung = test system: NCI-H226 lung
NCI-H522 lung = test system: NCI-H522 lung
CAKI-1 renal = test system: CAKI-1 renal
MDA-MB-435 = test system: MDA-MB-435
SF-539 CNS = test system: SF-539 CNS
HCT-15 colon = test system: HCT-15 colon
T-47D breast = test system: T-47D breast
SF-268 CNS = test system: SF-268 CNS
SW-620 colon = test system: SW-620 colon
SNB-19 CNS = test system: SNB-19 CNS

CCO/C=N/C1=C(C#N)C(c2ccc(Cl)cc2)c2c(-c3ccccc3)nn(-c3ccccc3)c2O1 (centres undefined)
TGI (MDA-MB-231 breast): > 67 µM | TGI (UACC-62 melanoma): 33.5 µM | TGI (NCI-H460 lung): 46 µM | TGI (A498 renal): 19.9 µM | TGI (ACHN renal): 29.5 µM | TGI (DU-145 prostate): > 31.6 µM | TGI (U251 CNS): 16.8 µM | TGI (NCI-H226 lung): 46.9 µM | TGI (NCI-H522 lung): 18.2 µM | TGI (CAKI-1 renal): 36 µM | TGI (MDA-MB-435): 35.8 µM | TGI (SF-539 CNS): > 26.2 µM | TGI (HCT-15 colon): > 52.5 µM | TGI (T-47D breast): > 100 µM | TGI (SF-268 CNS): 29.9 µM | TGI (SW-620 colon): > 66.5 µM | TGI (SNB-19 CNS): 24.7 µM

CC1=C(C#N)C2C(=C(N)Oc3ccccc32)C(N)=N1 (centres undefined)
TGI (MDA-MB-231 breast): 66.6 µM | TGI (UACC-62 melanoma): 48.4 µM | TGI (A498 renal): 74.2 µM | TGI (ACHN renal): 81.8 µM | TGI (DU-145 prostate): 60.9 µM | TGI (U251 CNS): > 100 µM | TGI (NCI-H226 lung): 66.2 µM | TGI (NCI-H522 lung): 36.2 µM | TGI (CAKI-1 renal): 53.9 µM | TGI (MDA-MB-435): > 100 µM | TGI (SF-539 CNS): 61.3 µM | TGI (HCT-15 colon): 41.4 µM | TGI (T-47D breast): 78.2 µM | TGI (SF-268 CNS): 67.4 µM | TGI (SW-620 colon): > 100 µM | TGI (SNB-19 CNS): 56.3 µM

c1ccc(N=c2sc3ccccc3sc2=Nc2ccccc2)cc1
TGI (MDA-MB-231 breast): 3.67 µM | TGI (UACC-62 melanoma): 2.66 µM | TGI (NCI-H460 lung): 3.79 µM | TGI (A498 renal): 5.65 µM | TGI (ACHN renal): 3.03 µM | TGI (DU-145 prostate): 17.1 µM | TGI (U251 CNS): 3.3 µM | TGI (NCI-H226 lung): 9.3 µM | TGI (NCI-H522 lung): 2.95 µM | TGI (CAKI-1 renal): 4.59 µM | TGI (MDA-MB-435): 3.99 µM | TGI (SF-539 CNS): 3.42 µM | TGI (HCT-15 colon): 3.57 µM | TGI (T-47D breast): 3.56 µM | TGI (SF-268 CNS): 10.2 µM | TGI (SW-620 colon): 3.27 µM | TGI (SNB-19 CNS): 16.7 µM

CC(C)[Si](OC1=C(C(=O)N(C)c2ccccc2Cl)CCCC1)(C(C)C)C(C)C
TGI (MDA-MB-231 breast): 31.3 µM | TGI (UACC-62 melanoma): 34 µM | TGI (NCI-H460 lung): 28.6 µM | TGI (A498 renal): 31 µM | TGI (ACHN renal): 29.5 µM | TGI (DU-145 prostate): 22.5 µM | TGI (U251 CNS): 25.8 µM | TGI (NCI-H226 lung): 31 µM | TGI (NCI-H522 lung): 19.2 µM | TGI (CAKI-1 renal): 27.3 µM | TGI (MDA-MB-435): 31.2 µM | TGI (SF-539 CNS): 32.7 µM | TGI (HCT-15 colon): 31.2 µM | TGI (T-47D breast): 10.5 µM | TGI (SF-268 CNS): 29.2 µM | TGI (SW-620 colon): 33.3 µM | TGI (SNB-19 CNS): 25.6 µM

OCc1ccc2c(c1)CC1(C2)Cc2cc3c(cc2C1)CCC3
TGI (MDA-MB-231 breast): > 100 µM | TGI (UACC-62 melanoma): > 72.2 µM | TGI (NCI-H460 lung): > 100 µM | TGI (A498 renal): 35.4 µM | TGI (ACHN renal): > 82.4 µM | TGI (DU-145 prostate): > 100 µM | TGI (U251 CNS): > 100 µM | TGI (NCI-H226 lung): > 100 µM | TGI (NCI-H522 lung): > 27.6 µM | TGI (CAKI-1 renal): > 100 µM | TGI (MDA-MB-435): 0.615 µM | TGI (SF-539 CNS): > 100 µM | TGI (HCT-15 colon): > 100 µM | TGI (T-47D breast): > 100 µM | TGI (SF-268 CNS): > 100 µM | TGI (SW-620 colon): > 31.6 µM | TGI (SNB-19 CNS): > 100 µM

CN(C)CCCNc1ccnc2cc([N+](=O)[O-])ccc12
TGI (MDA-MB-231 breast): 28.6 µM | TGI (UACC-62 melanoma): 33.6 µM | TGI (NCI-H460 lung): 17.7 µM | TGI (A498 renal): 31.7 µM | TGI (ACHN renal): 61.5 µM | TGI (DU-145 prostate): 72.2 µM | TGI (U251 CNS): 57.7 µM | TGI (NCI-H226 lung): 35 µM | TGI (NCI-H522 lung): 16.3 µM | TGI (CAKI-1 renal): 67.6 µM | TGI (MDA-MB-435): 31.3 µM | TGI (SF-539 CNS): 31.9 µM | TGI (HCT-15 colon): 26.7 µM | TGI (T-47D breast): 35.8 µM | TGI (SF-268 CNS): 53.9 µM | TGI (SW-620 colon): 30 µM

COCOCC1CCCN1CN1CCC[C@H]1COCOC (some centres undefined)
TGI (MDA-MB-231 breast): > 100 µM | TGI (UACC-62 melanoma): > 100 µM | TGI (NCI-H460 lung): > 100 µM | TGI (A498 renal): > 100 µM | TGI (ACHN renal): > 100 µM | TGI (DU-145 prostate): > 100 µM | TGI (U251 CNS): > 100 µM | TGI (NCI-H226 lung): > 100 µM | TGI (NCI-H522 lung): > 100 µM | TGI (CAKI-1 renal): > 100 µM | TGI (MDA-MB-435): > 100 µM | TGI (HCT-15 colon): > 100 µM | TGI (T-47D breast): > 100 µM | TGI (SF-268 CNS): > 100 µM | TGI (SW-620 colon): > 100 µM | TGI (SNB-19 CNS): > 100 µM

Cc1cc(S(=O)(=O)n2ccnc2Oc2ccccc2)c(SSc2cc(Cl)c(C)cc2S(=O)(=O)n2ccnc2Oc2ccccc2)cc1Cl
TGI (MDA-MB-231 breast): > 100 µM | TGI (UACC-62 melanoma): > 100 µM | TGI (NCI-H460 lung): > 100 µM | TGI (A498 renal): > 100 µM | TGI (DU-145 prostate): > 100 µM | TGI (U251 CNS): > 100 µM | TGI (NCI-H226 lung): > 100 µM | TGI (NCI-H522 lung): > 100 µM | TGI (CAKI-1 renal): > 100 µM | TGI (MDA-MB-435): > 100 µM | TGI (SF-539 CNS): > 100 µM | TGI (HCT-15 colon): > 100 µM | TGI (T-47D breast): > 100 µM | TGI (SF-268 CNS): > 100 µM | TGI (SW-620 colon): > 100 µM | TGI (SNB-19 CNS): > 100 µM

CCN(CC)CCOC(=O)CCN1CC2CCC(CC2)C1
TGI (MDA-MB-231 breast): > 100 µM | TGI (UACC-62 melanoma): > 100 µM | TGI (NCI-H460 lung): > 100 µM | TGI (A498 renal): > 100 µM | TGI (ACHN renal): > 100 µM | TGI (DU-145 prostate): > 100 µM | TGI (U251 CNS): > 100 µM | TGI (NCI-H226 lung): > 100 µM | TGI (NCI-H522 lung): > 100 µM | TGI (CAKI-1 renal): > 100 µM | TGI (MDA-MB-435): > 100 µM | TGI (SF-539 CNS): > 100 µM | TGI (HCT-15 colon): > 100 µM | TGI (T-47D breast): > 100 µM | TGI (SW-620 colon): > 100 µM | TGI (SNB-19 CNS): > 100 µM

N#Cc1c(C#N)c(-c2ccco2)n(-c2ccccc2)c1N
TGI (MDA-MB-231 breast): > 100 µM | TGI (UACC-62 melanoma): > 100 µM | TGI (A498 renal): > 100 µM | TGI (ACHN renal): > 100 µM | TGI (DU-145 prostate): > 100 µM | TGI (U251 CNS): > 100 µM | TGI (NCI-H226 lung): > 100 µM | TGI (NCI-H522 lung): > 100 µM | TGI (CAKI-1 renal): > 100 µM | TGI (MDA-MB-435): > 100 µM | TGI (SF-539 CNS): > 100 µM | TGI (HCT-15 colon): > 100 µM | TGI (T-47D breast): > 100 µM | TGI (SF-268 CNS): > 100 µM | TGI (SW-620 colon): > 100 µM | TGI (SNB-19 CNS): > 100 µM
